# In patent publication US20070128217A1 (priority 2003, published 2007):
# Experiments:
# [1] = system: control sera (pooled serum of ten healthy LUMC hospital workers; commercial negative donor pooled serum from the Dutch bloodbank); format: binding, human; design: Binding of Control serum LUMC to linear peptides / Binding of Control serum Blood-bank to linear peptides / Binding of Control serum LUMC to looped peptides / Binding of Control Serum Blood-Bank to Looped peptides / Binding of Control serum LUMC to linear peptides of the protein M of SARS-CoV Urbani / Binding of Control serum Blood-bank to linear peptides of the protein M of SARS-CoV Urbani / Binding of Control serum LUMC to looped peptides of the protein M of SARS-CoV Urbani / Binding of Control Serum Blood-Bank to Looped peptides of the protein M of SARS-CoV Urbani: unit not given here
# [2] = system: antibodies in sera from SARS patients (sera 1a, 1b, 2, 6, 37, 62, London, SARS-yellow, SARS-green); format: binding, human; design: Binding of serum 6 to linear peptides of protein X1 of SARS-CoV Urbani / Binding of serum 37 to linear peptides of protein X1 of SARS-CoV Urbani / Binding of serum 6 to looped/cyclic peptide (PEPSCAN-ELISA) / Binding of serum 37 to looped/cyclic peptide (PEPSCAN-ELISA) / Binding of serum 37 to looped/cyclic peptides of protein X1 of SARS-CoV Urbani / Binding of serum 6 to linear peptides of protein X2 / Binding of serum 37 to linear peptides of protein X2 / Binding of serum 37 to looped/cyclic peptides of protein X2 of SARS-CoV Urbani / Binding of serum 6 to linear peptides of protein M of SARS-CoV Urbani / Binding of serum 37 to linear peptides of protein M of SARS-CoV Urbani / Binding of serum 6 to looped/cyclic peptides of protein M of SARS-CoV Urbani / Binding of serum 37 to looped/cyclic peptides of protein M of SARS-CoV Urbani / Binding of serum 6 to linear peptides of protein X3 of SARS-CoV Urbani / Binding of serum 37 to linear peptides of protein X3 of SARS-CoV Urbani / Binding of serum 37 to looped/cyclic peptides of protein X3 of SARS-CoV Urbani / Binding of serum 6 to linear peptides of protein X4 of SARS-CoV Urbani / Binding of serum 37 to linear peptides of protein X4 of SARS-CoV Urbani / Binding of serum 37 to looped/cyclic peptides of protein X4 of SARS-CoV Urbani / Binding of serum 6 to linear peptides of protein X5 of SARS-CoV Urbani / Binding of serum 37 to linear peptides of protein X5 of SARS-CoV Urbani / Binding of serum 37 to looped/cyclic peptides of protein X5 of SARS-CoV Urbani / Binding of serum 6 to linear peptides of protein N of SARS-CoV Urbani / Binding of serum 37 to linear peptides of protein N of SARS-CoV Urbani / Binding of serum 6 to linear peptide (PEPSCAN-ELISA) / Binding of serum 1a to looped/cyclic peptides of protein N of SARS-CoV Urbani / Binding of serum 1b to looped/cyclic peptides of protein N of SARS-CoV Urbani / Binding of serum 2 to looped/cyclic peptides of protein N of SARS-CoV Urbani / Binding of serum 6 to looped/cyclic peptides of protein N of SARS-CoV Urbani / Binding of serum 37 to looped/cyclic peptides of protein N of SARS-CoV Urbani / Binding of serum 62 to looped/cyclic peptides of protein N of SARS-CoV Urbani / Binding of serum London to looped/cyclic peptides of protein N of SARS-CoV Urbani / Binding of serum SARS-green to looped/cyclic peptides of protein N of SARS-CoV Urbani: unit not given here
# [3] = system: rabbit serum obtained by immunizing a rabbit with the SARS-CoV strain Frankfurt 1; format: binding; design: Binding of a rabbit serum to linear peptides / Binding of a rabbit serum to looped peptides / Rabbit serum linear peptides / Rabbit serum looped peptides / Binding of a rabbit serum to linear peptides of protein N of SARS-CoV Urbani (Rabbit serum linear peptides) / Binding of a rabbit serum to looped/cyclic peptides of protein N of SARS-CoV Urbani (Rabbit serum looped peptides): unit not given here
# [4] = system: recombinant human anti-SARS-CoV antibody 03-018; format: binding; design: Binding of antibody 03-018 to linear peptides of the N protein of SARS-CoV Urbani / Binding of antibody 03-018 to looped/cyclic peptides of the N protein of SARS-CoV Urbani: unit not given here
Sequence,Binding of serum 1a to linear peptides of protein N of SARS-CoV Urbani [2],Binding of serum 1a to looped/cyclic peptides of protein N of SARS-CoV Urbani [2],Binding of serum 1b to linear peptides of protein N of SARS-CoV Urbani [2],Binding of serum 1b to looped/cyclic peptides of protein N of SARS-CoV Urbani [2],Binding of serum 2 to linear peptides of protein N of SARS-CoV Urbani [2],Binding of serum 2 to looped/cyclic peptides of protein N of SARS-CoV Urbani [2],Binding of serum 6 to linear peptides of protein N of SARS-CoV Urbani [2],Binding of serum 6 to looped/cyclic peptides of protein N of SARS-CoV Urbani [2],Binding of serum 37 to linear peptides of protein N of SARS-CoV Urbani [2],Binding of serum 37 to looped/cyclic peptides of protein N of SARS-CoV Urbani [2],Binding of serum 62 to linear peptides of protein N of SARS-CoV Urbani [2],Binding of serum 62 to looped/cyclic peptides of protein N of SARS-CoV Urbani [2],Binding of serum London to linear peptides of protein N of SARS-CoV Urbani [2],Binding of serum London to looped/cyclic peptides of protein N of SARS-CoV Urbani [2],Binding of serum SARS-green to linear peptides of protein N of SARS-CoV Urbani [2],Binding of serum SARS-green to looped/cyclic peptides of protein N of SARS-CoV Urbani [2],Binding of serum SARS-yellow to linear peptides of protein N of SARS-CoV Urbani [2],Binding of serum SARS-yellow to looped/cyclic peptides of protein N of SARS-CoV Urbani [2],Binding of antibody 03-018 to linear peptides of the N protein of SARS-CoV Urbani [4],Binding of antibody 03-018 to looped/cyclic peptides of the N protein of SARS-CoV Urbani [4],other results
DNNQNGGRNGARPKQ,0.2,0.4,0.1,0.2,0.3,0.4,0.1,0.3,0.6,0.6,0.7,0.4,0.5,0.4,0.6,0.4,0.6,0.4,0.2,0.3,Binding of Control Serum Blood-Bank to Looped peptides [1]: 0.7; Binding of Control serum Blood-bank to linear peptides [1]: 0.8; Binding of Control serum LUMC to linear peptides [1]: 0.6; Binding of Control serum LUMC to looped peptides [1]: 0.6; Binding of a rabbit serum to linear peptides of protein N of SARS-CoV Urbani (Rabbit serum linear peptides) [3]: 0.1; Binding of a rabbit serum to looped/cyclic peptides of protein N of SARS-CoV Urbani (Rabbit serum looped peptides) [3]: 0.4
DNVILLNKHIDAYKT,0.2,0.4,0.1,0.3,0.2,0.4,0.1,0.2,0.6,0.7,0.6,0.7,0.5,0.5,0.2,0.3,0.6,0.8,0.1,0.2,Control Serum Blood-Bank Looped peptides [1]: 0.7; Control serum Blood-bank linear peptides [1]: 0.5; Control serum LUMC linear peptides [1]: 0.6; Control serum LUMC looped peptides [1]: 0.7; Binding of a rabbit serum to linear peptides of protein N of SARS-CoV Urbani (Rabbit serum linear peptides) [3]: 0.1; Binding of a rabbit serum to looped/cyclic peptides of protein N of SARS-CoV Urbani (Rabbit serum looped peptides) [3]: 0.6
DQIGYYRRATRRVRG,0.2,0.3,0.1,0.2,0.3,0.5,0.2,0.3,0.7,0.9,0.6,0.8,0.5,0.5,0.4,0.6,0.6,0.7,0.1,0.3,Binding of Control Serum Blood-Bank to Looped peptides [1]: 0.8; Binding of Control serum Blood-bank to linear peptides [1]: 0.8; Binding of Control serum LUMC to linear peptides [1]: 0.7; Binding of Control serum LUMC to looped peptides [1]: 0.7; Recognition of the peptide by the rabbit serum [3]: recognized
